Reference: patent US20250017952A1, “ANTIFUNGAL COMPOUND, COMPOSITION AND USES THEREOF” (SASTRA DEEMED UNIVERSITY, priority 2021, published 2025)
“And” between values parts separate entries of the source, which are not always exact repeats. Identical values can stand only once. “Also recorded” adds a separate entry of the source.

Tests used:
[1] = tested on: C. albicans planktonic cells; assay: Planktonic growth, OD at 595 nm; type: cell-based, Candida albicans; conditions: 100 μM-0.47 pM tested
Experimental: (§1) FIG. 3 illustrates antifungal and antibiofilm evaluation against C. albicans at varying concentrations: The effect of the Cangrelor on planktonic cells was determined by measuring the OD at 595 nm. A wide range of concentrations ranging from 100 μM-0.47 pM were considered for evaluation. Biofilm inhibitory effects were determined by measuring the biofilm biomass using the Crystal Violet (CV) assay. The dose-response curves were plotted by fitting the inhibition data using a 4-parameter logistic equation. Cangrelor inhibited biofilms at a minimum concentration of 120 pM

C. albicans biofilm = assay: Biofilm inhibition, Crystal Violet (CV) assay; type: cell-based, Candida albicans; conditions: crystal violet biofilm biomass
Experimental: as §1

[2] = tested on: C. albicans SC5314 biofilm; assay: CLSM analysis of biofilm with COMSTAT quantification; type: cell-based, Candida albicans; conditions: for live/dead fluorescence of cells in CLSM: green = live, red = dead
From the text: FIG. 4a illustrates CLSM analyses of biofilm inhibitory effects of Cangrelor against C. albicans SC5314. […] The presence of red fluorescence in fluconazole treatment confirms its fungicidal effect. The COMSTAT analysis was done to quantify the biofilm coverage, average thickness, and biovolume from Z-stacks obtained from at least 5 regions of the glass slides, using a confocal laser scanning microscope (Olympus FLUOVIEW, FV1000) with a 40× objective lens (FIG. 4b).

[3] = tested on: C. albicans SC5314 biofilm; assay: SEM analysis of biofilm; type: cell-based, Candida albicans
Experimental: FIG. 5 illustrates Cangrelor abolish C. albicans SC5314 biofilm. An overnight culture of C. albicans was grown overnight at 30° C. in YPD liquid media. C. albicans cells (1.5×10^7 cells/ml) were seeded on the glass slides in the presence or absence of the ALS-3 drug-like chemotype, Cangrelor in YPD and incubated at 37° C. for 24 h. […] Statistical significance was determined using the unpaired Student's t test (P<0.0001).

[4] = tested on: Candida albicans SC5314, ATCC90028, clinical isolate BF1; assay: Germ tube / filamentation inhibition, phase contrast; type: cell-based; conditions: for germ tube / hyphal morphogenesis, time-dependent: till 6 h, three strains
Experimental: FIG. 6 illustrates the phase contrast images of germ tube inhibition of Candida albicans for the three strains by cangrelor in a time-dependent manner till 6 h. The untreated C. albicans show the hyphal development from the 2nd hour, where the yeast cells adhere, and at the 6 h, the hyphal is elongated and branched.
FIG. 7 illustrates the phase contrast images of filamentation inhibition of Candida albicans by cangrelor after 24 h of inhibition.
A time-dependent mapping of the hyphal development was done until 6 h upon Cangrelor treatment and compared to the untreated control for the three strains of C. albicans, including the standard strains-SC5314 and ATCC90028, and clinical isolate, BF1. […] The morphogenesis switch inhibition is essential as the primary virulence characteristic of C. albicans is hyphal formation. The hyphal form is necessary for biofilm formation and polymicrobial interaction to invade the host cell and overcome the immune response.

[5] = tested on: C. albicans biofilm, hyphal and virulence genes; assay: qRTPCR of biofilm, hyphal and virulence genes; type: cell-based, Candida albicans
Experimental: FIG. 8 illustrates the qRTPCR analysis of biofilm, hyphal and virulence genes in C. albicans biofilms treated with Cangrelor using 18srRNA as the housekeeping gene. Briefly, after 24 h incubation, planktonic cells were removed, and biofilm cells were collected, and RNA was extracted for the treated and untreated groups. […] The data was obtained in triplicates and analysis was performed by the 2^−ΔΔCt method.

[6] = tested on: C. albicans virulence genes (biofilm, hyphae, drug resistance); assay: RNAseq differential expression analysis; type: cell-based, Candida albicans; conditions: treated vs untreated
From the text: A cutoff absolute value of log fold change >1 (2-fold change) was used. Adjusted P value <0.05 (c) Venn diagram illustrating the degree of overlap between various virulence genes (Biofilm Inducing (BI); Hyphal Inducing (HI); and Drug Resistance (DR) in C. albicans under drug (Cangrelor) treated and untreated conditions.
TRY6, FYV5 (Pentland et al., 2018; Murillo et al., 2005; Nett et al., 2009a), drug-resistance genes MAK1 and RPP1 (Nett et al., 2009b; Levitin & Whiteway, 2007a) and upregulation of the genes, GAL and MAF1 that negatively regulates (repressors) the biofilm phenotype in C. albicans (Nobile et al., 2012). […] In Candida albicans, the potential shift from yeast to hypha is a route cause to host invasion and symbiotic relationship with other pathogens, where the data was significant to show downregulation of hyphal-specific genes such as ECE1, RAS, NDT80 (Moyes et al., 2016). […] This observation was very crucial to the inventor's claim that the compound, Cangrelor could potentiate the anti-fungal susceptibility (Moyes et al., 2016; Maglott et al., 2007b; Levitin & Whiteway, 2007b; Chaudhuri et al., 2011; Singh et al., 2011). Taken together, Cangrelor systematically downregulate the virulence features to potentially curb the pathogenesis of C. albicans.

[7] = tested on: Candida albicans on T24 bladder epithelial cells; assay: Adhesion and invasion of C. albicans in monolayer T24 bladder epithelial cells; type: cell-based
From the text: FIG. 10 illustrates the microscopic images of the monolayer T24 bladder epithelial cells infected with Candida albicans with and without Cangrelor treatment. […] The yeast cells (circled in white) were maintained upon the treatment and thereby couldn't adhere and invade the epithelial cells.

In the case of `CSCCNc1nc(SCCC(F)(F)F)nc2c1ncn2[C@@H]1O[C@H](COP(=O)(O)OP(=O)(O)C(Cl)(Cl)P(=O)(O)O)[C@@H](O)[C@H]1O` [Cangrelor], the “growth of C. albicans (planktonic)” value [1] is reported as “without affecting growth; also recorded: not inhibited”, the IC50 (C. albicans biofilm; Candida albicans, read-out: BIC50 (50% Biofilm Inhibition Concentration)) is reported as 0.12 nM and the “concentration at which biofilms were inhibited (minimum / very low concentration)” value (C. albicans biofilm) is reported as 120 pM. For the same compound, the “biofilm structure in CLSM images” value ([2]; C. albicans SC5314) was “no biofilm formation”, the roughness coefficient ([2]; COMSTAT, control 1.2) was 1.91 and the diffusion distance ([2]; COMSTAT, control 8.73 μm) was 0.18 μm. The average biofilm thickness ([2]; COMSTAT, control 28.64 μm) was 0.5 μm, the biofilm biomass ([2]; COMSTAT, untreated 25.96 μm) was “significant reduction” and the “live/dead fluorescence of cells in CLSM” value [2] was “live cells”. For the same compound, the “filamentation in SEM” value ([3]; 120 pM vs untreated control) was “abolished filamentation”, the “number of cells in SEM” value ([3]; 120 pM, 24 h, YPD, untreated more than 1200 cells) was < 56 cells and < 60 cells and the “filamentation after 24 h” value ([4]; 24 h) was “maintained the yeast form”. The “germ tube / hyphal morphogenesis, time-dependent” value [4] was “inhibits the hyphal morphogenesis”, the “germ tube / hyphal morphogenesis, time-dependent” value ([4]; listed as cangrelor) was “did not switch to the hyphal form” and the “expression of adhesion and invasion genes” value ([5]; 240 pM, 24 h biofilm cells) was “downregulated”. For the same compound, the ECE1 gene expression ([5]; qRTPCR) was “downregulation”, the ERG11 gene expression ([5]; qRTPCR) was “downregulated” and the PLB1 expression downregulation ([5]; qRTPCR, 2^−ΔΔCt) was about 2 log fold. For the same compound, the “expression of transcriptional regulators of biofilm and hyphal genes, adhesin and hyphal specific protein” value ([5]; qRTPCR, 18srRNA housekeeping) was “downregulated”, the “number of biofilm inducing genes downregulated” value [6] was “more than 90 genes” and the “adherence and invasion of epithelial cells” value [7] was “reducing adherence and invasion”. For the same compound, the “hyphal morphogenesis on epithelial cells” value [7] was “inhibited hyphal morphogenesis”.

In the case of `OC(Cn1cncn1)(Cn1cncn1)c1ccc(F)cc1F` [fluconazole], the “live/dead fluorescence of cells in CLSM” value [2] is reported as “dead cells”.
